Reference: US8343475B2, “Small cationic antimicrobial peptides” (priority 2006, dated 2013)
≈ marks a conversion by molar mass, not a printed value. Residues, ends and D or L forms follow the SMILES beside them.

Legend:
[1] = test system: MCP-1 release by human PBMC; test: Chemokine induction in PBMC (capture ELISA); type: cell-based; conditions: background (204) subtracted
Procedure: FIG. 15. Induction of MCP-1 release by 7.5×10^5 human PBMC in response to treatment with 20 or 100 μg/ml of different peptides for 24 hours.
(§1) Venous blood (20 ml) from healthy volunteers was collected in Vacutainer® collection tubes containing sodium heparin as an anticoagulant (Becton Dickinson, Mississauga, ON) in accordance with UBC ethical approval and guidelines. Blood was diluted 1:1 with complete RPMI 1640 medium and separated by centrifugation over a Ficoll-Paque® Plus (Amersham Biosciences, Piscataway, N.J., USA) density gradient. White blood cells were isolated from the buffy coat, washed twice in RPMI 1640 complete medium, and the number of peripheral blood mononuclear cells (PBMC) was determined by trypan blue exclusion. PBMC (5×10^5) were seeded into 12-well tissue culture dishes (Falcon; Becton Dickinson) at 0.75 to 1×10^6 cells/ml at 37° C. in 5% CO2. The above conditions were chosen to mimic conditions for circulating blood monocytes entering tissues at the site of infection via extravasation.
(§2) Following incubation of the cells under various treatment regimens, the tissue culture supernatants were centrifuged at 1000×g for 5 min, then at 10,000×g for 2 min to obtain cell-free samples. Supernatants were aliquoted and then stored at −20° C. prior to assay for various chemokines by capture ELISA (eBioscience and BioSource International Inc., CA, USA respectively)

[2] = test system: clinical isolates of MRSA; type: cell-based, Staphylococcus aureus
Procedure: (§3) Minimal inhibitory concentration (MIC) determination. The MIC of the peptides were measured using a modified broth microdilution method in Mueller Hinton (MH) medium (Wu M, Hancock R E W. 1999. Interaction of the cyclic antimicrobial cationic peptide bactenecin with the outer and cytoplasmic membrane. J Biol Chem 274, 29-35). Briefly, the peptides were dissolved and stored in glass vials. The assay was performed in sterile 96-well polypropylene microtitre plates were used. Serial dilutions of the peptides to be assayed were performed in 0.01% acetic acid (Fisher) containing 0.2% bovine serum albumin (Boehringer Mannheim GmbH) at 10× the desired final concentration. Ten microlitres of the 10× peptides were added to each well of a 96-well polypropylene plate containing 90 μl of MH media per well. Bacteria were added to the plate from an overnight culture at 2-7×10^5 colony forming units/ml and incubated over night at 37° C. The MIC was taken as the concentration at which no growth was observed.
(§4) All peptides derived from the 1st, 2nd, and 3rd quartiles were further evaluated for their antibacterial activities against several highly antibitoic resistant pathogens (Table 3). These included clinical isolates of MRSA, ESBL E. cloacae, and multidrug resistant Pseudomonas strains including Brazilian clinical isolates of P. aeruginosa that are resistant to meropenem, ceftazidime, piperacillin/tazobactam, ciprofloxacin, cefepime and polymyxin B, and the Liverpool Epidemic Strains. […] Such results characterize the developed peptides as excellent antibiotic candidates, providing new means for treating most dangerous and severe forms of human infections.

[3] = test system: multidrug resistant Pseudomonas maltophilia ATCC13637; type: cell-based
Procedure: as §3
(§5) The selected peptides were synthesized and assayed against several major antibiotic-resistant pathogens. Initially, the peptides were screened against the laboratory strain of P. aeruginosa PAO1 to compare the results with the training data. […] The antibacterial activity in the form of minimal inhibitory concentration (MIC) of the other studied peptides was assessed in greater depth (Table 9) against many highly antibiotic resistanct pathogens.

[4] = test system: ESBL E. coli clinical strain 64771; type: cell-based; conditions: ESBL clinical strain 64771
Procedure: as §3, §5

[5] = test system: ESBL Klebsiella pneumonia clinical strain 63575; type: cell-based
Procedure: as §3, §5

[6] = test system: Enterococcus faecalis ATCC29212; type: cell-based; conditions: ATCC29212
Procedure: as §3
(§6) Strains. For the killing assay a mini-Tn5-lux mutant in Pseudomonas aeruginosa H103 was used. The strain is called H1001 and contains a fliC::luxCDABE transcriptional fusion resulting in constitutive expression of luciferase. The bacterial strains used for the antimicrobial activity assays included Escherichia coli UB1005 (F-, nalA37, metB1), a wild-type Salmonella enterica ssp. typhimurium (S. typhimurium), wild-type Pseudomonas aeruginosa PAO1 strain H103, Enterococcus faecalis ATCC29212, Staphylococcus aureus ATCC25923, and a clinical isolate of Staphylococcus epidermidis obtained from Dr. D. Speert (Department of Medicine, University of British Columbia). Antifungal activity was tested using a lab isolate of Candida albicans obtained from Dr. B. Dill (Department of Microbiology and Immunology, University of British Columbia).

[7] = test system: Staphylococcus aureus ATCC25923; type: cell-based; conditions: ATCC25923
Procedure: as §3, §6

[8] = test system: Liverpool Epidemic Strains; type: cell-based, Pseudomonas aeruginosa
Procedure: as §3, §4

[9] = test system: Pseudomonas aeruginosa PAO1 strain H103; type: cell-based; conditions: PAO1
Procedure, shortened: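 Modified broth microdilution MIC in Mueller Hinton medium, peptides diluted in 0.01% acetic acid/0.2% BSA, polypropylene plates. Inoculum 2-7×10^5 CFU/ml, overnight at 37 °C; MIC is the lowest concentration with no visible growth.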

[10] = test system: MCP-3 release by human PBMC; test: Chemokine induction in PBMC (capture ELISA); type: cell-based; conditions: background (6) subtracted
Procedure: FIG. 16. Induction of MCP3 release by 7.5×10^5 human PBMC in response to treatment with 20 or 100 μg/ml of different peptides for 24 hours.
as §1, §2

[11] = test system: ESBL E. cloacae; type: cell-based, Enterobacter cloacae
Procedure: as §3, §4

[12] = test system: CXCL1 (Gro-α) release by human PBMC; test: Chemokine induction in PBMC (capture ELISA); type: cell-based; conditions: background (196) subtracted
Procedure: FIG. 17. Induction of CXCL1 (Gro-α) release by 7.5×10^5 human PBMC in response to treatment with 20 or 100 μg/ml of different peptides for 24 hours.
as §1, §2

[13] = test system: clinical isolate of Staphylococcus epidermidis; type: cell-based; conditions: clinical isolate of
Procedure: as §3, §6

[14] = test system: lab isolate of Candida albicans; type: cell-based; conditions: lab isolate of
Procedure: as §3, §6

[15] = test system: wild-type Salmonella enterica ssp. typhimurium; type: cell-based
Procedure: as §3, §6

[16] = test system: Escherichia coli UB1005; type: cell-based; conditions: UB1005
Procedure: as §3, §6

Row | SMILES | Chemokine induction MCP-1 ([1]; 20 μg/ml peptide) | Chemokine induction MCP-1 ([1]; 100 μg/ml peptide) | MIC [2] | MIC [3] | MIC [4] | MIC [5] | MIC [6] | MIC [7] | MIC [8] | Chemokine induction MCP-3 ([10]; 20 μg/ml peptide) | Chemokine induction MCP-3 ([10]; 100 μg/ml peptide) | Chemokine induction Gro-α ([12]; 20 μg/ml peptide) | Chemokine induction Gro-α ([12]; 100 μg/ml peptide) | MIC S. epi. [13] | MIC E. faecalis [6] | MIC C. albicans [14] | MIC S. typhi [15] | MIC E. coli [16] | MIC S. aureus [7] | MIC P. aerug [9] | also measured
1 | CC[C@H](C)[C@H](NC(=O)[C@H](CCCNC(=N)N)NC(=O)[C@H](CCCCN)NC(=O)[C@@H](NC(=O)[C@H](Cc1c[nH]c2ccccc12)NC(=O)[C@H](Cc1c[nH]c2ccccc12)NC(=O)[C@H](Cc1c[nH]c2ccccc12)NC(=O)[C@H](CCCNC(=N)N)NC(=O)[C@@H](N)CC(C)C)[C@@H](C)CC)C(N)=O [HHC57, LRWWWIKRI] (H-LRWWWIKRI-NH2; N-terminus assumed) | 146 pg/mL | 1364 pg/mL | 63 µM (≈ 85.4 µg/mL) | 3 µM (≈ 4.07 µg/mL) | 13 µM (≈ 17.6 µg/mL) | 50 µM (≈ 67.8 µg/mL) | 13 µM (≈ 17.6 µg/mL) | 6 µM (≈ 8.13 µg/mL) | 6 µM (≈ 8.13 µg/mL) | 0 pg/mL | 9 pg/mL | 21 pg/mL | 18 pg/mL | – | – | – | – | – | – | – | MIC against P. aeruginosa PAO1 [9]: 4 to 12 µM; MIC [11]: 50 µM (≈ 67.8 µg/mL)
2 | CC[C@H](C)[C@H](NC(=O)[C@H](CCCNC(=N)N)NC(=O)[C@H](Cc1ccccc1)NC(=O)[C@H](CCC(N)=O)NC(=O)[C@@H](N)CCCCN)C(=O)N[C@@H](CCCNC(=N)N)C(=O)N[C@H](C(=O)N[C@@H](CCCNC(=N)N)C(=O)N[C@H](C(=O)N[C@H](C(=O)N[C@@H](CCCNC(=N)N)C(=O)N[C@@H](CCCCN)C(N)=O)[C@@H](C)CC)C(C)C)C(C)C [HH12, KQFRIRVRVIRK] (H-KQFRIRVRVIRK-NH2; N-terminus assumed) | 1649 pg/mL | 635 pg/mL | – | – | – | – | – | – | – | 91 pg/mL | 21 pg/mL | 773 pg/mL | 172 pg/mL | 1.6 µg/mL (≈ 1 µM) | 25 µg/mL (≈ 15.6 µM) | 6 µg/mL (≈ 3.75 µM) | 6 µg/mL (≈ 3.75 µM) | 3 µg/mL (≈ 1.88 µM) | 12 µg/mL (≈ 7.51 µM) | 6 µg/mL (≈ 3.75 µM) | –
3 | CC[C@H](C)[C@H](NC(=O)[C@@H](N)CCCCN)C(=O)N[C@@H](Cc1c[nH]c2ccccc12)C(=O)N[C@@H](Cc1c[nH]c2ccccc12)C(=O)N[C@@H](Cc1c[nH]c2ccccc12)C(=O)N[C@@H](Cc1c[nH]c2ccccc12)C(=O)N[C@@H](CCCNC(=N)N)C(=O)N[C@@H](CCCCN)C(=O)N[C@@H](CCCNC(=N)N)C(N)=O [HHC8, KIWWWWRKR] (H-KIWWWWRKR-NH2; N-terminus assumed) | 68 pg/mL | 835 pg/mL | 6 µM (≈ 8.66 µg/mL) | 3 µM (≈ 4.33 µg/mL) | 6 µM (≈ 8.66 µg/mL) | 47 µM (≈ 67.9 µg/mL) | 24 µM (≈ 34.7 µg/mL) | 6 µM (≈ 8.66 µg/mL) | 5.9 µM (≈ 8.52 µg/mL) | 1 pg/mL | 4 pg/mL | 9 pg/mL | -11 pg/mL | – | – | – | – | – | – | – | MIC [11]: 94 µM (≈ 136 µg/mL)
4 | CC[C@H](C)[C@H](NC(=O)[C@H](CCCNC(=N)N)NC(=O)[C@H](CC(C)C)NC(=O)[C@H](CCCNC(=N)N)NC(=O)[C@@H](N)C(C)C)C(=O)N[C@@H](CCCNC(=N)N)C(=O)N[C@H](C(=O)N[C@@H](CCCNC(=N)N)C(=O)N[C@H](C(=O)N[C@H](C(=O)N[C@@H](CCCNC(=N)N)C(=O)N[C@@H](CCCCN)C(N)=O)[C@@H](C)CC)C(C)C)C(C)C [HH11, VRLRIRVRVIRK] (H-VRLRIRVRVIRK-NH2; N-terminus assumed) | – | – | – | – | – | – | – | – | – | – | – | – | – | 0.8 µg/mL (≈ 0.512 µM) | 12 µg/mL (≈ 7.68 µM) | 3 µg/mL (≈ 1.92 µM) | 6 µg/mL (≈ 3.84 µM) | 1.6 µg/mL (≈ 1.02 µM) | 6 µg/mL (≈ 3.84 µM) | 3 µg/mL (≈ 1.92 µM) | –
5 | CC[C@H](C)[C@H](NC(=O)[C@H](CCCNC(=N)N)NC(=O)[C@H](Cc1ccccc1)NC(=O)[C@H](CCCNC(=N)N)NC(=O)[C@@H](N)CCCCN)C(=O)N[C@@H](CCCNC(=N)N)C(=O)N[C@H](C(=O)N[C@@H](C)C(=O)N[C@H](C(=O)N[C@@H](CCCNC(=N)N)C(=O)N[C@@H](CCCNC(=N)N)C(=O)N[C@@H](C)C(N)=O)C(C)C)C(C)C [HH10, KRFRIRVAVRRA] (H-KRFRIRVAVRRA-NH2; N-terminus assumed) | – | – | – | – | – | – | – | – | – | – | – | – | – | 3.1 µg/mL (≈ 2.03 µM) | >50 µg/mL | 12 µg/mL (≈ 7.86 µM) | >50 µg/mL | 6 µg/mL (≈ 3.93 µM) | 25 µg/mL (≈ 16.4 µM) | 25 µg/mL (≈ 16.4 µM) | –
6 | CC[C@H](C)[C@H](NC(=O)[C@H](CCCNC(=N)N)NC(=O)[C@H](Cc1c[nH]c2ccccc12)NC(=O)[C@H](CCCNC(=N)N)NC(=O)[C@@H](N)C(C)C)C(=O)N[C@@H](CCCNC(=N)N)C(=O)N[C@H](C(=O)N[C@@H](C)C(=O)N[C@H](C(=O)N[C@H](C(=O)N[C@@H](CCCNC(=N)N)C(=O)N[C@@H](C)C(N)=O)[C@@H](C)CC)C(C)C)C(C)C [HH4, VRWRIRVAVIRA] (H-VRWRIRVAVIRA-NH2) | – | – | – | – | – | – | – | – | – | – | – | – | – | 1.6 µg/mL (≈ 1.07 µM) | 12 µg/mL (≈ 8.03 µM) | 12 µg/mL (≈ 8.03 µM) | 6 µg/mL (≈ 4.02 µM) | 1.6 µg/mL (≈ 1.07 µM) | 12 µg/mL (≈ 8.03 µM) | 6 µg/mL (≈ 4.02 µM) | –
